# Measurements published in ChEMBL document CHEMBL1141961, “Identification of coumarin derivatives as a novel class of allosteric MEK1 inhibitors” (Bioorg Med Chem Lett, 2005).
# pIC50: −log10 of the molar value. The source made the active and inactive calls. The rule behind the calls is not given here.
# Key:
# [1] = biological target: T1, Dual specificity mitogen-activated protein kinase kinase 1 (Homo sapiens, UniProt Q02750); test: Inhibition of activated human MEK1 in MEK-ERK coupling assay
# [2] = Inhibition of LPS-induced TNFalpha production in human monocyte THP1 cells; format: functional, cell-based; conditions: THP-1
# [3] = biological target: T1, Dual specificity mitogen-activated protein kinase kinase 1; test: Inhibition of ERK phosphorylation in THP1 cells; format: functional, cell-based; conditions: THP-1
# [4] = Inhibition of human MEK1 activation by COT in COT-MEK-ERK coupling assay
# [5] = biological target: T1, Dual specificity mitogen-activated protein kinase kinase 1; test: Inhibition of human MEK1 activation by bRaf in RAF-MEK-ERK coupling assay
# [6] = biological target: T1, Dual specificity mitogen-activated protein kinase kinase 1; test: Inhibition of activated human MEK1 in MEK-ERK coupling assay at 10 uM
# T1 sequence (Q02750 whole entry): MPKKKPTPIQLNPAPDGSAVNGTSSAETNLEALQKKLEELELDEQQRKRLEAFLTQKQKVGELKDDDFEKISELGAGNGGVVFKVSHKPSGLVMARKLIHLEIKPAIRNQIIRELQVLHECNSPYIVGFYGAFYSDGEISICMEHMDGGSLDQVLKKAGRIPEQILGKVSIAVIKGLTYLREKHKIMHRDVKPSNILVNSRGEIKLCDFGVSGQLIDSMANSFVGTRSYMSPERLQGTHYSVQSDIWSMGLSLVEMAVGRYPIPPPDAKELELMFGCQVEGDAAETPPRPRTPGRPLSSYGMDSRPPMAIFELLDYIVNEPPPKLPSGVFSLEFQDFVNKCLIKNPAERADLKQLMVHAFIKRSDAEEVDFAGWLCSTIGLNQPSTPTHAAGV
Compound,pIC50 [1],pIC50 [2],Activity [3],pIC50 [4],pIC50 [5],Activity [6]
Cc1c(Cc2ccccc2)c(=O)oc2cc(OC(=O)N(C)C)c(Cl)cc12,5.00,7.05,Active,7.15,–,–
Cc1c(Cc2ccccc2)c(=O)oc2cc(OC(=O)C3CC3)ccc12,–,–,–,6.70,6.70,inactive
Cc1c(Cc2ccc(F)cc2)c(=O)oc2cc(OC(=O)N(C)C)ccc12,–,6.70,Active,6.52,6.52,inactive
